How the values were obtained:
[1] = spontaneous isomerisation at room temperature monitored by HPLC; format: physicochemical
Text: The main difference between the spectra is the hypsochromic shift of the Compound 2 peak maxima of about 3 nm.

Row | SMILES | stability (geometrical isomerisation) [1] | oxidative metabolism (HEK293 cells) | elongation to a 22 carbon fatty acid (HEK293 cells; compared with AA or EPA) | cellular uptake and assimilation into complex lipids (HEK293 cells; fractionation of organic extracts on aminopropyl columns)
1 | CC/C=C\C/C=C\C\C=C/C=C/C=C/C=C/CCCC(=O)O [Compound 1, 5E,7E,9E,11Z,14Z,17Z-eicosahexaenoic acid] | spontaneous room temperature conversion of Compound 1 to Compound 2 |  |  | 
2 | CC/C=C\C/C=C\C/C=C/C=C/C=C/C=C/CCCC(=O)O [5E,7E,9E,11E,14Z,17Z-eicosahexaenoic acid] |  | appears to be oxidized through a monooxygenation system in HEK293 cells, and the products released to the medium | appeared not to be elongated efficiently to a 22 carbon fatty acid | taken up by the cells and assimilated into complex lipids
